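Growth conditions: 96-well plates. Treatment: test compound, 48 hours, 5 concentrations. Analysis: linear interpolation between bracketing concentrations; unreached endpoints set to highest concentration. Definition used: TGI = concentration required for complete inhibition of growth.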
Experiments:
Assay in all cases: NCI-60 cell line screen, 48 h
[1] = system: CAKI-1 renal
[2] = system: MDA-MB-435
[3] = system: TK-10 renal
[4] = system: SNB-19 CNS
[5] = system: ACHN renal
[6] = system: MOLT-4 leukemia
[7] = system: CCRF-CEM leukemia
[8] = system: M14 melanoma
[9] = system: SK-MEL-5 melanoma
[10] = system: 786-0 renal
[11] = system: OVCAR-4 ovarian
[12] = system: SK-OV-3 ovarian
[13] = system: SNB-75 CNS
[14] = system: PC-3 prostate
[15] = system: SK-MEL-2 melanoma
[16] = system: LOX IMVI melanoma
[17] = system: MALME-3M melanoma
[18] = system: NCI-H522 lung
[19] = system: HOP-62 NSCLC
[20] = system: SR leukemia
[21] = system: BT-549 breast
[22] = system: COLO 205 colon
[23] = system: K-562 leukemia
[24] = system: T-47D breast
[25] = system: UACC-62 melanoma
[26] = system: OVCAR-3 ovarian
[27] = system: MCF7 breast
[28] = system: UACC-257 melanoma
[29] = system: MDA-N
[30] = system: OVCAR-8 ovarian
[31] = system: MDA-MB-231 breast
[32] = system: RPMI-8226 leukemia
[33] = system: OVCAR-5 ovarian
[34] = system: NCI-H226 lung
[35] = system: NCI/ADR-RES ovarian
[36] = system: SF-268 CNS
[37] = system: EKVX NSCLC
[38] = system: HCT-116 colon
[39] = system: U251 CNS
[40] = system: HT29 colon
[41] = system: NCI-H460 lung
[42] = system: SW-620 colon
[43] = system: IGROV1 ovarian
[44] = system: UO-31 renal
[45] = system: SF-539 CNS
[46] = system: A549 NSCLC
[47] = system: SN12C renal
[48] = system: RXF 393 renal
[49] = system: HOP-92 NSCLC
[50] = system: SF-295 CNS
[51] = system: A498 renal
[52] = system: DU-145 prostate
[53] = system: HCT-15 colon
[54] = system: HCC-2998 colon
[55] = system: NCI-H23 lung
[56] = system: HS 578T breast
[57] = system: SK-MEL-28 melanoma
[58] = system: KM12 colon
[59] = system: HL-60(TB) leukemia

CCn1c(SCc2nnc(Nc3ccccc3)s2)nc2ccccc2c1=O showed a TGI [1] of 9.04 µM, a TGI [2] greater than 100 µM and a TGI [3] of 12.3 µM. The TGI [4] was 13.4 µM, the TGI [5] was 9.16 µM and the TGI [6] was greater than 100 µM. For the same molecule, the TGI [7] was greater than 85.7 µM, the TGI [8] was greater than 61.4 µM and the TGI [9] was 32.5 µM. It also gave a TGI [10] of 3.97 µM, a TGI [11] of 5 µM and a TGI [12] of 7.66 µM. The TGI [13] was 14.2 µM, the TGI [14] was greater than 67.4 µM and the TGI [15] was 32 µM. The TGI [16] was 25.4 µM, the TGI [17] was 14 µM and the TGI [18] was 7.63 µM. The TGI [19] was 12.5 µM, the TGI [20] was 61.4 µM and the TGI [21] was 26.7 µM. It also gave a TGI [22] of 43.2 µM, a TGI [23] greater than 73.2 µM and a TGI [24] of 27 µM. For the same molecule, the TGI [25] was 11.9 µM, the TGI [26] was 41.2 µM and the TGI [27] was greater than 93.6 µM. For the same molecule, the TGI [28] was 51.9 µM, the TGI [29] was greater than 52.1 µM and the TGI [30] was 5.09 µM. For the same molecule, the TGI [31] was 10.2 µM, the TGI [32] was 37.1 µM and the TGI [33] was 31.1 µM. It also gave a TGI [34] of 7.75 µM, a TGI [35] of 10.9 µM and a TGI [36] of 22.3 µM. It also gave a TGI [37] of 17.3 µM, a TGI [38] of 3.97 µM and a TGI [39] of 5.3 µM. The TGI [40] was 12.5 µM, the TGI [41] was 4.77 µM and the TGI [42] was greater than 68.3 µM. The TGI [43] was 15.7 µM, the TGI [44] was 12.1 µM and the TGI [45] was 19.3 µM. The TGI [46] was 19.3 µM, the TGI [47] was 18.2 µM and the TGI [48] was 19.1 µM. For the same molecule, the TGI [49] was 9.11 µM, the TGI [50] was 6.87 µM and the TGI [51] was 3.92 µM. For the same molecule, the TGI [52] was 36.5 µM, the TGI [53] was greater than 100 µM and the TGI [54] was 31.7 µM. For the same molecule, the TGI [55] was 19.4 µM, the TGI [56] was 8.56 µM and the TGI [57] was 60.8 µM. For the same molecule, the TGI [58] was greater than 48.9 µM.

In the case of COc1ccc(OC)c(-c2cn3c(n2)sc2ccccc23)c1, the TGI [1] was greater than 100 µM, the TGI [2] was greater than 100 µM and the TGI [3] was greater than 100 µM. For the same molecule, the TGI [59] was greater than 100 µM, the TGI [4] was greater than 100 µM and the TGI [5] was greater than 100 µM. The TGI [6] was greater than 100 µM, the TGI [7] was greater than 100 µM and the TGI [9] was greater than 100 µM. The TGI [10] was greater than 100 µM, the TGI [11] was greater than 100 µM and the TGI [12] was greater than 100 µM. For the same molecule, the TGI [13] was greater than 100 µM, the TGI [14] was greater than 100 µM and the TGI [15] was greater than 100 µM. For the same molecule, the TGI [16] was greater than 100 µM, the TGI [17] was greater than 100 µM and the TGI [18] was greater than 100 µM. It also gave a TGI [19] greater than 100 µM, a TGI [20] greater than 100 µM and a TGI [21] greater than 100 µM. The TGI [22] was greater than 100 µM, the TGI [23] was greater than 100 µM and the TGI [24] was greater than 100 µM. For the same molecule, the TGI [25] was greater than 100 µM, the TGI [26] was greater than 100 µM and the TGI [27] was greater than 100 µM. For the same molecule, the TGI [28] was greater than 100 µM, the TGI [29] was greater than 100 µM and the TGI [30] was greater than 100 µM. It also gave a TGI [31] greater than 100 µM, a TGI [32] greater than 100 µM and a TGI [33] greater than 100 µM. For the same molecule, the TGI [34] was greater than 100 µM, the TGI [35] was greater than 100 µM and the TGI [36] was greater than 100 µM. The TGI [37] was greater than 100 µM, the TGI [38] was greater than 100 µM and the TGI [39] was greater than 100 µM. The TGI [40] was greater than 100 µM, the TGI [41] was greater than 100 µM and the TGI [42] was greater than 100 µM. For the same molecule, the TGI [43] was greater than 100 µM, the TGI [44] was greater than 100 µM and the TGI [45] was greater than 100 µM. It also gave a TGI [46] greater than 100 µM, a TGI [47] greater than 100 µM and a TGI [48] greater than 100 µM. It also gave a TGI [49] greater than 100 µM, a TGI [50] greater than 100 µM and a TGI [52] greater than 100 µM. For the same molecule, the TGI [53] was greater than 100 µM, the TGI [55] was greater than 100 µM and the TGI [56] was greater than 100 µM. It also gave a TGI [58] greater than 100 µM.

Cn1c(=O)[nH]n(-c2ccc3ccccc3c2)c1=O showed a TGI [1] greater than 100 µM, a TGI [2] greater than 100 µM and a TGI [3] greater than 100 µM. For the same molecule, the TGI [59] was greater than 100 µM, the TGI [4] was greater than 100 µM and the TGI [5] was greater than 100 µM. The TGI [7] was greater than 100 µM, the TGI [8] was greater than 100 µM and the TGI [9] was greater than 100 µM. It also gave a TGI [10] greater than 100 µM, a TGI [11] greater than 100 µM and a TGI [12] greater than 100 µM. The TGI [13] was greater than 100 µM, the TGI [14] was greater than 100 µM and the TGI [15] was greater than 100 µM. For the same molecule, the TGI [16] was greater than 100 µM, the TGI [17] was greater than 100 µM and the TGI [18] was greater than 100 µM. The TGI [21] was greater than 100 µM, the TGI [22] was greater than 100 µM and the TGI [23] was greater than 100 µM. It also gave a TGI [24] greater than 100 µM, a TGI [25] greater than 100 µM and a TGI [26] greater than 100 µM. The TGI [27] was greater than 100 µM, the TGI [28] was greater than 100 µM and the TGI [29] was greater than 100 µM. It also gave a TGI [30] greater than 100 µM, a TGI [31] greater than 100 µM and a TGI [32] greater than 100 µM. For the same molecule, the TGI [33] was greater than 100 µM, the TGI [34] was greater than 100 µM and the TGI [35] was greater than 100 µM. It also gave a TGI [36] greater than 100 µM, a TGI [37] greater than 100 µM and a TGI [38] greater than 100 µM. For the same molecule, the TGI [39] was greater than 100 µM, the TGI [40] was greater than 100 µM and the TGI [41] was greater than 100 µM. The TGI [42] was greater than 100 µM, the TGI [43] was greater than 100 µM and the TGI [44] was greater than 100 µM. For the same molecule, the TGI [45] was greater than 100 µM, the TGI [46] was greater than 100 µM and the TGI [47] was greater than 100 µM. The TGI [48] was greater than 100 µM, the TGI [49] was greater than 100 µM and the TGI [50] was greater than 100 µM. The TGI [51] was greater than 100 µM, the TGI [52] was greater than 100 µM and the TGI [53] was greater than 100 µM. The TGI [54] was greater than 100 µM, the TGI [55] was greater than 100 µM and the TGI [56] was greater than 100 µM. For the same molecule, the TGI [57] was greater than 100 µM and the TGI [58] was greater than 100 µM.

Molecule O=C(O)Cn1ncn(NC(=O)Cc2ccccc2)c1=S has a TGI [1] greater than 10 µM, a TGI [2] greater than 10 µM and a TGI [3] greater than 10 µM. It also gave a TGI [4] greater than 10 µM, a TGI [5] greater than 10 µM and a TGI [6] greater than 10 µM. The TGI [7] was greater than 10 µM, the TGI [8] was greater than 10 µM and the TGI [9] was greater than 10 µM. For the same molecule, the TGI [10] was greater than 10 µM, the TGI [11] was greater than 10 µM and the TGI [12] was greater than 10 µM. The TGI [13] was greater than 10 µM, the TGI [14] was greater than 10 µM and the TGI [16] was greater than 10 µM. For the same molecule, the TGI [17] was greater than 10 µM, the TGI [18] was greater than 10 µM and the TGI [19] was greater than 10 µM. The TGI [20] was greater than 10 µM, the TGI [21] was greater than 10 µM and the TGI [22] was greater than 10 µM. For the same molecule, the TGI [23] was greater than 10 µM, the TGI [24] was greater than 10 µM and the TGI [25] was greater than 10 µM. It also gave a TGI [26] greater than 10 µM, a TGI [27] greater than 10 µM and a TGI [28] greater than 10 µM. For the same molecule, the TGI [29] was greater than 10 µM, the TGI [30] was greater than 10 µM and the TGI [31] was greater than 10 µM. For the same molecule, the TGI [32] was greater than 10 µM, the TGI [33] was greater than 10 µM and the TGI [35] was greater than 10 µM. It also gave a TGI [36] greater than 10 µM, a TGI [37] greater than 10 µM and a TGI [38] greater than 10 µM. For the same molecule, the TGI [39] was greater than 10 µM, the TGI [40] was greater than 10 µM and the TGI [41] was greater than 10 µM. The TGI [42] was greater than 10 µM, the TGI [43] was greater than 10 µM and the TGI [44] was greater than 10 µM. It also gave a TGI [45] greater than 10 µM, a TGI [46] greater than 10 µM and a TGI [47] greater than 10 µM. The TGI [49] was greater than 10 µM, the TGI [50] was greater than 10 µM and the TGI [51] was greater than 10 µM. For the same molecule, the TGI [52] was greater than 10 µM, the TGI [53] was greater than 10 µM and the TGI [54] was greater than 10 µM. For the same molecule, the TGI [55] was greater than 10 µM, the TGI [56] was greater than 10 µM and the TGI [57] was greater than 10 µM. The TGI [58] was greater than 10 µM.
